Patent publication US20080261994A1, “CYCLOPROPANE COMPOUNDS AND PHARMACEUTICAL USE THEREOF” (Japan Tobacco Inc., priority 2003, published 2008)
Like-named read-outs stand apart in the source and are kept apart here.

Key:
Assay type in all cases: biochemical
aggrecanase-1 = molecular target: T1, aggrecanase-1 (Homo sapiens, UniProt O75173); assay: Aggrecanase-1 inhibitory action (Particle Assay, GAG release from aggrecan-containing polyacrylamide particles)
T1 sequence (O75173 213-837): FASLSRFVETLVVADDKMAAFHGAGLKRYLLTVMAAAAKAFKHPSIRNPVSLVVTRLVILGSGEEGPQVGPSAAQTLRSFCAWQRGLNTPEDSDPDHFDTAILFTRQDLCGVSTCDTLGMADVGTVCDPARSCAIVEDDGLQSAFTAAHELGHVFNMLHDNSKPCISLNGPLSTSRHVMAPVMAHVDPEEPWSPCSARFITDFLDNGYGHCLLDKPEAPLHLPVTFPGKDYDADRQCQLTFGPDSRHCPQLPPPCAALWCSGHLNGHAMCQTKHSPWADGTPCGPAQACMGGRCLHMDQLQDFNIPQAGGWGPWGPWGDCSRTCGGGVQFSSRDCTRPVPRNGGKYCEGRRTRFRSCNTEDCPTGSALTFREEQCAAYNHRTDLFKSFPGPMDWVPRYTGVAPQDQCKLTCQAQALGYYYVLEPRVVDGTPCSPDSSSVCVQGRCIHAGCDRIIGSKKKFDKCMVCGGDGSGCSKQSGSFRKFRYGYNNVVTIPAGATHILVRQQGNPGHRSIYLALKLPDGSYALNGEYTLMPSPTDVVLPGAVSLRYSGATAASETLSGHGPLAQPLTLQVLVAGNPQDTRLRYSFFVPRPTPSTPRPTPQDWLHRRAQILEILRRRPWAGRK
In short: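 Readout was dimethylmethylene blue absorbance (595 nm) of glycosaminoglycan liberated into supernatant, calibrated with whale chondroitin sulfate. Substrate was aggrecan in polyacrylamide particles, digested 15 h at 37° C in Tris-HCl; TC50 (μM) derived from inhibition relative to no-enzyme and no-inhibitor controls.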

Recombinant Human MMP-13 = molecular target: T2, Recombinant Human MMP-13 (Homo sapiens, UniProt P45452); assay: MMP-13 inhibitory activity (MMP-13 specific fluorescent substrate with quencher)
T2 construct: purchased R&D systems 511-MM
In short: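 IC50 (μM) derived from % inhibition, normalised to wells without enzyme and without inhibitor, fluorescence read at 325/405 nm. Enzyme and compound preceded addition of the quenched 7-MCA…DPA substrate; Tris-HCl buffer, 25 °C for 1 h, acetic-acid stop.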

MMP-1 = molecular target: T3, MMP-1 (Homo sapiens, UniProt P03956); assay: MMP-1 inhibitory action (Type I collagen Activity Measurement kit, FITC-labeled collagen type I)
T3 sequence (P03956 100-469): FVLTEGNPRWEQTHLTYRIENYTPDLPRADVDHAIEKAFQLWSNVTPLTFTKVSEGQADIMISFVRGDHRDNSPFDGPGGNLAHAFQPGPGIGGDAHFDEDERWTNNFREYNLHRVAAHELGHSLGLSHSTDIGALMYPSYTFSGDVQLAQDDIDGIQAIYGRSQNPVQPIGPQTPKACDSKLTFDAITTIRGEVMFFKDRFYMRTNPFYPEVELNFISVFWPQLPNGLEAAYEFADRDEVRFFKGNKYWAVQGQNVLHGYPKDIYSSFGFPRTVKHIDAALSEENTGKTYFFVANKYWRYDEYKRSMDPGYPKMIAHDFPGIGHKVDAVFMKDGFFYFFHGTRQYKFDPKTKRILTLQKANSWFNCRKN

[1] = Experimental Example 1, read-out: IC50 AG1
[2] = Experimental Example 3, read-out: IC50 MMP13
[3] = Experimental Example 2, read-out: IC50 MMP1
[4] = aggrecanase-1 inhibitory action, read-out: IC50 AG1 (Experimental Example 1)
[5] = Recombinant Human MMP-13, fluorescent substrate, 25° C. for 1 h, read-out: IC50 MMP13 (Experimental Example 3)
[6] = MMP-1 inhibitory action, FITC-labeled collagen type I, 37° C. for 3 hr, read-out: IC50 MMP1 (Experimental Example 2)

SMILES	IC50 (aggrecanase-1; [1])	IC50 (Recombinant Human MMP-13; [2])	IC50 (MMP-1; [3])	IC50 (aggrecanase-1; [4])	IC50 (Recombinant Human MMP-13; [5])	IC50 (MMP-1; [6])
O=C(NO)C1(NS(=O)(=O)c2ccc(-c3ccc(Cl)cc3)s2)C2Cc3ccccc3C21 (stereo not drawn) [Example 2-447]	< 1000 nM	< 100 nM	< 1000 nM	–	–	–
C[C@]1(c2ccccc2)C[C@@]1(NS(=O)(=O)c1ccc(-c2ccc(CO)c(F)c2)s1)C(=O)O [Example 2-594]	< 1000 nM	< 1000 nM	≥ 1000 nM	–	–	–
O=C(O)C1(NS(=O)(=O)c2ccc(-c3cc(C(F)(F)F)on3)s2)CC1(CCCO)c1ccccc1 (stereo not drawn) [Example 2-248]	–	–	–	< 100 nM	< 1000 nM	≥ 1000 nM
O=C(O)C1(NS(=O)(=O)c2ccc(-c3ccc(Cl)cc3)s2)CC1c1cccc(OCc2ccccn2)c1 (stereo not drawn) [Example 1-108]	–	–	–	< 100 nM	< 100 nM	≥ 1000 nM
CC1(c2cccc(F)c2)CC1(NS(=O)(=O)c1ccc(-c2cc(C(F)(F)F)on2)s1)C(=O)O (stereo not drawn) [Example 2-611]	< 100 nM	≥ 1000 nM	< 1000 nM	–	–	–
CC1[C@H](c2ccccc2)[C@]1(NS(=O)(=O)c1ccc(-c2ccc(Cl)c(N)c2)s1)C(=O)O (stereo partly drawn) [Example 2-496]	< 100 nM	< 100 nM	< 1000 nM	–	–	–
O=C1O[C@@H]([C@H]2C[C@@]2(NS(=O)(=O)c2ccc(-c3ccc(Cl)cc3)s2)C(=O)O)CN1Cc1ccccc1 [Example 2-139]	–	–	–	≥ 1000 nM	≥ 1000 nM	≥ 10000 nM
COCCN1CCN(S(=O)(=O)N[C@@]2(C(=O)O)C(C)[C@@H]2c2ccccc2)CC1 (stereo partly drawn) [Example 2-534]	≥ 1000 nM	≥ 1000 nM	≥ 1000 nM	–	–	–
CC(C)NCC1(c2ccccc2)CC1(NS(=O)(=O)c1ccc(-c2ccc(Cl)cc2)s1)C(=O)O (stereo not drawn) [Example 2-392]	≥ 1000 nM	≥ 1000 nM	≥ 10000 nM	–	–	–
C[C@]1(c2ccccc2)C[C@@]1(NS(=O)(=O)c1ccc(-c2ccncc2)s1)C(=O)O [Example 2-526]	≥ 1000 nM	≥ 1000 nM	≥ 1000 nM	–	–	–
CC1[C@H](c2ccccc2)[C@]1(NS(=O)(=O)c1ccc(-n2cccn2)s1)C(=O)O (stereo partly drawn) [Example 2-542]	< 1000 nM	< 100 nM	≥ 1000 nM	–	–	–
O=C(O)[C@]1(NS(=O)(=O)c2ccc(-c3ccc(Cl)cc3)s2)C[C@@H]1c1ccccc1 [Example 1-85]	–	–	–	< 100 nM	< 100 nM	≥ 1000 nM
CN(C)C(=O)NCC1(c2ccccc2)CC1(NS(=O)(=O)c1ccc(-c2ccc(Cl)cc2)s1)C(=O)O (stereo not drawn) [Example 2-378]	< 1000 nM	< 1000 nM	≥ 1000 nM	–	–	–
CC(=O)N1CC=C(c2ccc(S(=O)(=O)N[C@@]3(C(=O)O)C[C@@H]3c3ccccc3)s2)CC1 [Example 2-177]	–	–	–	≥ 1000 nM	≥ 1000 nM	≥ 10000 nM
O=C(c1cccc(C2CC2(NS(=O)(=O)c2ccc(-c3ccc(Cl)cc3)s2)C(=O)O)c1)N1CCOCC1 (stereo not drawn) [Example 2-73]	–	–	–	< 100 nM	< 1000 nM	≥ 10000 nM
CC1[C@@H](c2ccccc2)[C@@]1(NS(=O)(=O)c1ccc(-c2cc(C(F)(F)F)on2)s1)C(=O)O (stereo partly drawn) [Example 2-288]	< 100 nM	< 100 nM	< 1000 nM	–	–	–
O=C(O)C1(NS(=O)(=O)c2ccc(-c3ccc(Cl)cc3)s2)CC1c1ccc(Br)cc1 (stereo not drawn) [Example 2-202]	–	–	–	< 1000 nM	< 1000 nM	≥ 10000 nM
O=C(O)[C@]1(NS(=O)(=O)c2ccc(-c3cc(C(F)(F)F)on3)s2)C[C@@H]1c1ccccc1Br [Example 2-193]	–	–	–	< 1000 nM	< 1000 nM	≥ 10000 nM
CC1[C@H](c2ccccc2)[C@]1(NS(=O)(=O)N1CCC(OCc2cccc(Cl)c2)C1)C(=O)O (stereo partly drawn) [Example 2-549]	≥ 1000 nM	≥ 1000 nM	≥ 1000 nM	–	–	–

SMILES	IC50 (aggrecanase-1; [1])	IC50 (Recombinant Human MMP-13; [2])	IC50 (MMP-1; [3])	IC50 (aggrecanase-1; [4])	IC50 (Recombinant Human MMP-13; [5])	IC50 (MMP-1; [6])
CC1[C@H](c2ccccc2)[C@]1(NS(=O)(=O)N1CCN(c2ccc(C(F)(F)F)cc2)CC1)C(=O)O (stereo partly drawn) [Example 2-428]	< 1000 nM	< 100 nM	≥ 1000 nM	–	–	–
O=C(O)C1(NS(=O)(=O)c2ccc(-c3ccc(Cl)cc3)cc2)CC1c1cccc(Oc2ccccc2)c1 (stereo not drawn) [Example 1-10]	–	–	–	< 1000 nM	< 1000 nM	≥ 1000 nM
CC1C(c2ccccc2)C1(NS(=O)(=O)c1ccc(CCc2ccccc2)s1)C(=O)O (stereo not drawn) [Example 2-541]	≥ 1000 nM	≥ 1000 nM	≥ 1000 nM	–	–	–
O=C(O)C1(NS(=O)(=O)N2CCC(Oc3ccc(Cl)cc3)CC2)CC1c1ccccc1 (stereo not drawn) [Example 2-128]	–	–	–	≥ 10000 nM	≥ 10000 nM	≥ 10000 nM
CCC1[C@H](c2ccccc2)[C@]1(NS(=O)(=O)c1ccc(-c2cc(C(F)(F)F)on2)s1)C(=O)O (stereo partly drawn) [Example 2-328]	< 100 nM	< 100 nM	< 100 nM	–	–	–
CC1CCC(c2ccc(S(=O)(=O)N[C@@]3(C(=O)O)C[C@]3(C)c3ccccc3)cc2)CC1 (stereo partly drawn) [Example 2-436]	≥ 1000 nM	≥ 1000 nM	≥ 10000 nM	–	–	–
CC(C)CC(=O)N1CCN(S(=O)(=O)N[C@@]2(C(=O)O)C[C@@H]2c2ccccc2)CC1 [Example 2-513]	≥ 1000 nM	≥ 1000 nM	≥ 1000 nM	–	–	–
CC1[C@H](c2ccccc2)[C@]1(NS(=O)(=O)N1CCN(C/C=C/c2ccccc2)CC1)C(=O)O (stereo partly drawn) [Example 2-537]	≥ 1000 nM	≥ 1000 nM	≥ 1000 nM	–	–	–
O=C(O)C1(NS(=O)(=O)c2ccc(-c3ccc(Cl)cc3)s2)C2CCOc3ccccc3C21 (stereo not drawn) [Example 2-369]	< 100 nM	< 100 nM	≥ 1000 nM	–	–	–
O=C(CCc1ccc([C@H]2C[C@@]2(NS(=O)(=O)c2ccc(-c3cc(C(F)(F)F)on3)s2)C(=O)O)cc1)N1CCOCC1 [Example 2-279]	< 100 nM	< 100 nM	< 1000 nM	–	–	–
CC1[C@H](c2ccccc2)[C@]1(NS(=O)(=O)c1ccc(-c2cc(C(F)(F)F)on2)s1)C(N)=O (stereo partly drawn) [Example 2-296]	≥ 1000 nM	≥ 1000 nM	≥ 10000 nM	–	–	–
O=C(NCC(F)(F)F)c1ccc(S(=O)(=O)NC2(C(=O)O)CC2c2ccccc2)s1 (stereo not drawn) [Example 2-106]	–	–	–	≥ 10000 nM	≥ 10000 nM	≥ 10000 nM
CC1C(c2ccccc2)C1(NS(=O)(=O)c1ccc(-c2ccc(Cl)cc2)s1)C(=O)O (stereo not drawn) [Example 2-326]	< 1000 nM	< 1000 nM	≥ 1000 nM	–	–	–
O=C(O)C1(NS(=O)(=O)c2ccc(-c3ccc(Cl)cc3)s2)CC1C1CCCCC1 (stereo not drawn) [Example 2-41]	–	–	–	< 1000 nM	< 1000 nM	≥ 10000 nM
O=C(O)[C@]1(NS(=O)(=O)c2ccc(-c3ccc(Cl)nc3)s2)C[C@@H]1c1ccccc1 [Example 2-27]	–	–	–	< 1000 nM	< 1000 nM	≥ 10000 nM
O=C(O)C1(NS(=O)(=O)c2ccc(-c3ccc(Cl)c(Cl)c3)s2)CC1c1ccccc1 (stereo not drawn) [Example 2-18]	–	–	–	< 1000 nM	< 1000 nM	≥ 1000 nM
COCC1C(c2ccccc2)C1(NS(=O)(=O)c1ccc(-c2cc(C(F)(F)F)on2)s1)C(=O)O (stereo not drawn) [Example 2-539]	< 100 nM	< 100 nM	< 1000 nM	–	–	–
CC1[C@H](c2ccccc2)[C@]1(NS(=O)(=O)c1ccc(-c2nc3ccccc3[nH]2)s1)C(=O)O (stereo partly drawn) [Example 2-584]	< 1000 nM	< 100 nM	≥ 1000 nM	–	–	–
O=C(O)C1(NS(=O)(=O)c2ccc(-c3ccc(Cl)cc3)cc2)CC1c1cccc(Nc2ccccn2)c1 (stereo not drawn) [Example 1-61]	–	–	–	< 1000 nM	< 100 nM	≥ 1000 nM
